Assay [1] is described as follows: Catalytic AOP pretreatment of hybrid poplar with multi-ligand catalysts, then enzymatic hydrolysis (glucose conversion). The settings on record: for Glucose (Glucose Conversions): hybrid poplar, 270 mM NaOH, 10% H2O2, 24 hrs 30° C. On the set-up: species or system Populus nigra var. charkoviensis×caudina cv. NE-19. The protocol:
Enzymatic hydrolysis was performed on the solid poplar slurry at 50° C. in the same rotary shaker used for the extraction step. In preparation for hydrolysis, 20 μL of 72% (w/w) H2SO4 and 500 μL of 1 M sodium citrate buffer (pH 5) (prepared from sodium citrate and citric acid) were added to the solid poplar slurry to adjust the pH to 5 (optimum pH for the enzymes being used herein). Thereafter, 40 μL of 10 mM tetracycline (Sigma-Aldrich) stock solution was added to the solid poplar slurry to inhibit microbial growth. This step was followed by addition of a Cellic CTec2 and HTec2 (Novozymes A/S, Bagsværd, DK) enzyme cocktail at a loading of 30 mg protein/g glucan in the biomass prior to extraction and catalytic pretreatment, unless otherwise noted. The enzymatic reaction (50° C., 210 rpm, 72 hrs) was carried out at 5% solids concentration by adjusting the volume of the poplar slurry to 10 mL via the addition of deionized water.
Following enzymatic hydrolysis, the resulting solid and liquid phases were separated by centrifugation in same manner as in Example 2, to produce separated hydrolyzed solid and liquid phases. The amount of glucose and xylose released into the aqueous phase was quantified by High Performance Liquid Chromatography (HPLC) (Agilent 1260 Series equipped with an Aminex® HPX-87H column operating at 65° C., a mobile phase of 0.05 M H2SO4, and a flow rate of 0.6 mL per minute, and detection by refractive index). The yield of glucose and xylose released was defined as the amount of solubilized monosaccharide divided by the total sugar content of the poplar biomass prior to incubation and catalytic pretreatment as determined by chemical composition analysis.
Hybrid poplar (0.5 g) (same source as Example 2) was catalytically pretreated using 1 mM of a stock solution of multi-ligand copper complex, namely copper (II) 2,2′ bipyridine ethylenediamine (Cu(bpy)en) containing 40 mM copper sulphate pentahydrate, 40 mM bipyridine and 40 mM ethylenediamine in deionized water, together with 270 mM NaOH and 10% H2O2 loading (w/w) on biomass in a total 5 mL volume made with deionized water. Other components of the pretreatment catalyst include tetraacetylethylenediamine (TAED), ethylenediaminetetraacetic acid (EDTA), manganese sulfate, and magnesium sulfate. The catalytic pretreatment was allowed to proceed for approximately 24 hrs at 30° C.
Thereafter, the resulting poplar slurry was pH adjusted to 5 and hydrolyzed according to the process described in Example 3. Following enzymatic hydrolysis, the solid and liquid phases were separated by centrifugation as described in Example 3.

Assay [2] is described as follows: Catalytic AOP pretreatment of alkali-extracted switchgrass, then enzymatic hydrolysis (glucose yield). Details: species or system Panicum virgatum. To be noted: for Glucose yield of enzymatic hydrolysis (% of theoretical maximum): 24 hr AOP pretreatment of AESG, catalyst concentration per table. The protocol: Screening of various metal ligand complexes (hereinafter “catalysts”) was performed via catalytic alkaline oxidative pretreatment (AOP) pretreatment of alkali-extracted switchgrass (AESG). To prepare AESG, 80 grams of untreated switchgrass (Panicum virgatum, cv. Cave-In-Rock, hammer milled to pass a 5-mm screen, and stored at a moisture content of approximately 5%) was soaked in an aqueous solution of 5 g/L NaOH at 80° C. for 2 hrs. The weight-to-volume (w/v) solids loading of switchgrass during alkaline extraction was 10% (e.g., 10 g of biomass in 100 mL NaOH solution). […] The washed solids was recovered as AESG and air-dried for over 7 days.
[Al(III)(3,5-^tBu2-salophen)Cl] [3,5-^tBu2-salophen=N,N′-bis(3,5-di-tert-butylsalicylidene)-1,2-phenylenediamine], [Zn(II)(BPPA)Cl]Cl [BPPA=N,N-bis(6-pivaloylamido-2-pyridylmethyl)-N-(2-pyridylmethyl)amine], and [NEt4][Fe(III)(bpb)Cl2]
To study the effect of catalytic AOP pretreatment on AESG, pretreatment was performed in a 100 g/L aqueous suspension of AESG in the presence of each catalyst. […] After 24 hrs of incubation at 30° C. without mixing, the pretreated switchgrass slurry was washed using deionized water to remove the alkaline phosphate buffer.
The enzymatic digestibility of AOP-pretreated switchgrass was estimated by the yield of glucose during the enzymatic hydrolysis of AOP pretreated AESG. The percentage yield was calculated on the basis of the glucan content in AESG prior to catalytic AOP pretreatment.
For enzymatic hydrolysis, 500 μL of 1 M Na-citrate buffer (pH 5) and 40 μL of 10 mM tetracycline (Sigma-Aldrich) were added to AOP-AESG that was not dried after catalytic AOP pretreatment. Accellerase 1500 (42 FPU/mL; Danisco-Genencor, Palo Alto, Calif.) was added at 50 mg protein per gram of glucan in AESG. The total volume of the mixture (solid and liquid) was adjusted with deionized water to reach a 5% (w/v) solids concentration, and the samples were incubated at 50° C. during hydrolysis.

A short description of assay [3]: Metal-catalyzed AOP pretreatment of chelated woody biomass, then enzymatic hydrolysis. To be noted: [metal]:[bpy]=2 mM:4 mM; versus Mn-AOP and Fe-AOP; FIG. 30. The protocol:
Three different pretreatment strategies were tested on each of the biomass samples: alkali only, alkaline hydrogen peroxide (AOP), and copper-catalyzed AOP (Cu-AOP). In all cases, 0.51 g of biomass (approximately 0.5 g dry basis; about 3 to about 5% moisture content) was pretreated in a total of 5.0 mL aqueous solution (10% solids loading). For alkali-only pretreatment, the solution contained 50 mg NaOH (100 mg NaOH/g biomass), while AOP pretreatment also contained 150 μL of 30% H2O2 (100 mg H2O2/g biomass). […]
Following pretreatment, 0.5 mL of 1 M citric acid buffer (pH 4.8) was added to the pretreated slurry, and the slurry was slowly titrated with 72% (w/w) H2SO4 to adjust the pH to 5.0 prior to enzymatic hydrolysis. […] The protein concentrations of the stock enzyme cocktails were quantified as y described in X. Gao, R. Kumar, S. Singh, B. A. Simmons, V. Balan, B. E. Dale and C. […]
Following enzymatic hydrolysis, the solid and liquid phases were separated by centrifugation, and the amount of glucose and xylose released into the aqueous phase was quantified by HPLC (Agilent 1260 Series equipped with an Aminex® HPX-87H column operating at 65° C., a mobile phase of 0.05 M H2SO4, a flow rate of 0.6 mL/min, and detection using an Agilent 1260 infinity refractive index detector). […]

Assay [4] can be described thus: Catalyst screening with multi-ligand metal complexes: enzymatic digestibility of hybrid poplar after AOP pretreatment. To be noted: FIG. 1. Details: species or system Populus nigra var. charkoviensis×caudina cv. NE-19. The protocol:
Metal complexes (hereinafter “metal catalysts”) containing multiple or single metal coordinating ligands were tested. The metal catalysts tested included copper catalysts having a second metal coordinating ligand substituted for at least a portion of the 2,2′-bipyridine. These catalysts were evaluated for their performance in further enhancing the efficacy of AOP pretreatment of hybrid poplar. Ligands involved in the screening included histidine, glycine, di(2-picolyl)amine (dipica, 97%), 1,4,7-triazacyclononane (TACN, 95%), 2,2′;6′,2″-terpyridine (Terpy, 98%), 1,10-phenanthroline (phen, ≥99%), and tris(2-pyridylmethyl)amine (TPA, 98%, obtained from Sigma-Aldrich and Acros Organics/0). An iron 2,2′-bipyridine complex was prepared by mixing ferrous sulfate heptahydrate with 2,2′-bipyridine in an aqueous solution, and this iron complex was also tested.
The hybrid poplar (Populus nigra var. charkoviensis×caudina cv. NE-19) used in this testing was grown at the University of Wisconsin Arlington Agricultural Research Station. The hybrid poplar was harvested in 2011 and debarked using methods known in the art at the University of Wisconsin, Madison to produce heartwood and sap wood (different parts of the wood stem which can be differentiated via chemical testing). […]

Setting [5] is: catalyst concentration not given.

As to `O=S(=O)([O-])[O-].[Cu+2]` [CuSO4, copper sulfate], the “Glucose (Glucose Conversions)” value in assay [1] (setting [5]) is given as 40.62.
As to “copper(II) 2,2′-bipyridine complex [Cu(bpy), L/M = 3:1]”, the “Glucose yield of enzymatic hydrolysis (% of theoretical maximum)” value is given as 38.67 ± 0.3 % of theoretical maximum in assay [2] (pH 10, 24 hrs hydrolysis); 42.98 ± 0.88 % of theoretical maximum in assay [2] (pH 10, 72 hrs hydrolysis); 41.65 ± 0.14 % of theoretical maximum in assay [2] (pH 11, 24 hrs hydrolysis); 44.97 ± 0.42 % of theoretical maximum in assay [2] (pH 11, 72 hrs hydrolysis); 41.56 ± 0.06 % of theoretical maximum in assay [2] (pH 13, 24 hrs hydrolysis). Further, the “Improvement in enzymatic digestibility of AOP pretreated AESG” value in assay [2] (pH 11.5, versus no catalyst) is “very moderate improvement”. Also, the “Enzymatic digestibility after metal-catalyzed AOP” value in assay [3] is “significantly higher enzymatic digestibility than the addition of either Mn(bpy) or Fe(bpy) complexes”. Also, the “Performance in enhancing AOP pretreatment of hybrid poplar (enzymatic digestibility)” value in assay [4] was “superior performance among all candidates”.
In the case of `NCCN.[Cu+2].c1ccc(-c2ccccn2)nc1` [Cu(bpy)en, copper (II) 2,2′ bipyridine ethylenediamine], the entries for the “Glucose (Glucose Conversions)” value in assay [1] (catalyst 1 mM) and in assay [1] (catalyst 2 mM) were 55.00 and 48.15, respectively. In addition, the “Glucose yields compared to other catalyst systems” value in assay [1] (in words) was “higher glucose yields compared to other catalyst systems tested”.
`O=S(=O)([O-])[O-].[Mg+2]` [MgSO4, magnesium sulfate]: the “Glucose (Glucose Conversions)” value in assay [1] (setting [5]) came to 25.17.
